*: point of attachment. Decanoyl = CCCCCCCCCC(=O)*; CH2Cl = ClC*

One experiment deals with T1, PC7 (Homo sapiens, UniProt Q16549).
T1 construct: expressed in transfected cells; host or cells: naïve IHH cells
T1 sequence (Q16549 142-785): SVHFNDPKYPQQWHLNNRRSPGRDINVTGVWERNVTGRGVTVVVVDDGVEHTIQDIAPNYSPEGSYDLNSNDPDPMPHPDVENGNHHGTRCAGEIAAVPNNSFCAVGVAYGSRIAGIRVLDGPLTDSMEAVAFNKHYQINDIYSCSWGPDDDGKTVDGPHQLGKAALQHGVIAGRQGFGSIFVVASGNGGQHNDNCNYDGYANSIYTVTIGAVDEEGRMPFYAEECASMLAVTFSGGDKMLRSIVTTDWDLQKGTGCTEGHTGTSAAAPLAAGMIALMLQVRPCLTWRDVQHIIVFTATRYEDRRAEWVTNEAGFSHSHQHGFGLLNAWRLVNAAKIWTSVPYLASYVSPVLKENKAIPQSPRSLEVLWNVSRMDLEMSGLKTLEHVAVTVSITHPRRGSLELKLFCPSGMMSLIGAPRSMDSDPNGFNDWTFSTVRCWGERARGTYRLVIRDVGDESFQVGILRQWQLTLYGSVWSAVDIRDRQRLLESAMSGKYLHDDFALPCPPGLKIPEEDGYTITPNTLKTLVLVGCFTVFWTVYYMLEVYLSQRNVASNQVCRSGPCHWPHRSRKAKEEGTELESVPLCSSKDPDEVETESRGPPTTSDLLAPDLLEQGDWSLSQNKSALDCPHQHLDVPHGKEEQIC
The experiment can be described thus: s-apoB secretion in IHH cells overexpressing PC7, with pan-proprotein convertase inhibitor. The experiment is classed as cell-based. Particulars: naive IHH cells overexpressing PC7 and s-apoB. Here is the method:
(§1) FIGS. 7A-l: PCSK7 can bind apoB in the ER and acts as a molecular chaperone-like facilitating its secretion, and its absence leads to a rapid degradation of apoB by the proteasome. […] (FIG. 7A) Western blot (presented on gel and graphically) of apoB100 and PC7 protein levels in WT and PCSK7^−/− IHH cells. Levels are normalized to α-tubulin. (FIG. 7B) Western blot (presented on gel and graphically) of apoB100 and PC7 protein levels over time (0, 15 and 30 minutes) in WT and PCSK7^−/− IHH cells incubated with cycloheximide (CHX) to block de novo mRNA translation. Levels are normalized to α-tubulin. (FIG. 7C-D) Western blot (presented on gel and graphically) of cellular apoB levels in WT and PCSK7^−/− IHH cells incubated with brefeldin A (BFA) that blocks exit from the endoplasmic reticulum (ER), an autophagy inhibitor 3-methyladenine (3MA), proteasome inhibitors MG132, Lactacystin, DMSO or non treated (NT) controls. (FIG. 7E) Western blot (presented on gel) of cellular apoB levels and polyubiquitinated apoB100 in WT and PCSK7^−/− IHH cells incubated with Lactacystin. (FIG. 7F) Schematic representation of apoB100 and apoB21 protein. […]

Another experiment concerns mice fed a HFFC diet. The experiment can be described thus: Liver lipid droplets and histopathology in mice recovering from HFFC diet. In kind it is in vivo, mouse. Particulars: after 8 weeks recovery and treatment. The source says:
FIGS. 39A-D (FIG. 39A) Upper panels—Oil red 0 staining of liver sections control (no treatment), and ASO-2, ASO-7 and α-tocopherol treated mice. Lower panels; Total area of LDs, mean area of LD and LD number in non treated mice or in mice treated with GalNac-ASO-7, GalNac-ASO-2 or α-tocopherol. (FIG. 39B) Liver morphology and fat accumulation measured in terms of liver inflammation, hepatocyte ballooning and steatosis grade in non treated mice or in mice treated with GalNac-ASO-7, GalNac-ASO-2 or α-tocopherol. (FIG. 39C) Extent of fibrosis measured by Sirius red staining in non treated mice or in mice treated with GalNac-ASO-7, GalNac-ASO-2 or α-tocopherol. […]
Eight ASOs against mouse Pcsk7 were tested in mouse FL38B hepatocytes and the best ones, namely ASO2 and ASO7, were modified (FIG. 37D) with covalent linkages to trivalent N-acetyl-Galactosamine (GalNac) residues (FIG. 37E). […] Mice were next injected with 5 mg/kg of either GalNac-ASO7 and GalNac-ASO-2, twice a week for 1 month, whereupon the livers and their partially purified primary hepatocytes were analyzed by RT-qPCR for the levels of Pcsk7 mRNA. […]
The reduction of LD accumulation in mice treated with GalNac-ASO-7 or GalNac-ASO-2 compared to α-tocopherol was next analyzed (FIG. 39A).

Experiment [1] relates to Mouse FL38B hepatocyte cells. The experiment is described as follows: Lipid droplet accumulation in oleic acid-treated mouse hepatocyte cells. In kind it is cell-based. The protocol: FIGS. 37A-E: Comparison of various ASOs and vitamin E on lipid droplet accumulation in mouse FL38B hepatocytes. (FIG. 37A) Immunocytochemical analysis of mouse FL38B hepatocyte cells incubated for 48 h with oleic acid in the presence of either fluorescent mouse mASO-1, mASO-2 or mASO-7 (not shown) or α-tocopherol (vitamin E) (arrows pointing towards transfected cells, red staining indicate lipid droplets). (FIG. 37B) Quantitative analysis of results expressed in bar graph. (FIGS. 37C-D). The effect of eight ASOs on Pcsk7 mRNA levels as measured by quantitative PCR (qPCR). The experiment was repeated two independent times. *p<0.05 (FIG. 37A) The effect of mASO-1, mASO-2, mASO-7 and Vitamin E on reduction of accumulation of fluorescent triglycerides in cells as estimated by FACS measurement of lipid droplets (LD) by LipidTox™ staining. (FIG. 37E). modifications of ASO by trivalent linkage to N-acetyl-Galactosamine ([…]).
The effect of eight ASOs on Pcsk7 mRNA levels was measured by quantitative PCR (qPCR) (FIG. 37C). Mouse FL38B hepatocyte cells were incubated for 48 h with oleic acid in the presence of either fluorescent (green) mouse mASO-1, mASO-7 or α-tocopherol (vitamin E). […] (FIGS. 37B-37D). Mouse FL38B hepatocyte cells were plated on day 1, ASOs were added on day 2, the media was replaced on day 3 and RNA was extracted on day 4. […]

The subject of another experiment is Pcsk7 mRNA. The experiment can be described thus: Liver Pcsk7 mRNA after the recovery period following HFFC diet. The settings on record: after 8 weeks recovery, 500 IU/kg of food. In kind it is in vivo, mouse.
The next experiment deals with apoB. The experiment is described as follows: apoB degradation pathway in WT and PCSK7-/- IHH cells with pathway inhibitors. The experiment is classed as cell-based, human. The protocol: as §1

Procedure for Pcsk7 mRNA: The dose-dependent efficacy of these ASOs following their subcutaneous injection in mice was tested for the decrease in total liver Pcsk7 mRNA at 2, 5, 10 and 15 mg/kg, twice a week for 1 month. […] Mice were next injected with 5 mg/kg of either GalNac-ASO7 and GalNac-ASO-2, twice a week for 1 month, whereupon the livers and their partially purified primary hepatocytes were analyzed by RT-qPCR for the levels of Pcsk7 mRNA. […] A program was then set up whereby 8 weeks-old mice were fed a HFFC diet for 16 weeks, after which they were switched to a regular chow diet for another 8 weeks recovery period. The mice were divided into 3 groups of 12 mice each and treated as follows starting from the beginning of the recovery period (FIG. 38C): (1) a control non-treated group; (2) two GalNac-ASO groups subcutaneously injected twice a week for 8 weeks with either GalNac-ASO7 or GalNac-ASO2 at 5 mg/kg; (3) a group fed a chow diet containing Vitamin E (α-tocopherol) at 500 IU/kg of food.
The inventors next compared the levels of Pcsk7 mRNAs in the livers of mice after the 8 weeks recovery period that followed the 16-weeks HFFC diet.

Consider Decanoyl-RVKR-CH2Cl, for which the “chaperone-like activity of PC7 on apoB (s-apoB secretion)” value on PC7 is recorded as “did not block”.

As to `Cc1c(C)c2c(c(C)c1O)CC[C@@](C)(CCC[C@H](C)CCC[C@H](C)CCCC(C)C)O2` [α-tocopherol], in the experiment with mice fed a HFFC diet, the “reduced total area, more abundant but smaller LDs, relative to GalNac-ASO7” value is “significantly less”. Besides, the “accumulation of lipid droplets” value in experiment [1] (48 h with oleic acid, immunocytochemistry) is “significantly reduced”. For the same compound, the “accumulation of fluorescent triglycerides in cells” value in experiment [1] (FACS measurement of lipid droplets by LipidTox staining) was “best reduction”. Moreover, the “increase in Pcsk7 mRNA levels” value in the experiment on Pcsk7 mRNA was 33%.

With `C[C@H]1CCC/C=C/[C@@H]2C[C@H](O)C[C@H]2[C@H](O)/C=C/C(=O)O1` [BFA, brefeldin A], in the experiment with apoB, the “inhibition of apoB degradation” value is “absence of BFA inhibition”.

The values above are taken from patent US20250129370A1, “METHOD FOR REDUCING HEPATIC TRIGLYCERIDES” (ADAERATA, LIMITED PARTNERSHIP, priority 2022, published 2025).
